Converted amounts (≈) assume the structure as drawn. “And” between values parts separate entries of the source, which are not always exact repeats. Identical values can stand only once. Like-named read-outs stand apart in the source and are kept apart here. Blank lines part the entries; values can stand above or below the molecule they belong to.
Key:
Mushroom tyrosinase = test: cell-free mushroom tyrosinase assay of fractions (L-Tyr substrate); format: biochemical; details: L-Tyr as substrate, fractions at 0-12 μg/mL
Protocol: Mushroom tyrosinase and L-Tyr were reconstituted in 50 mM Na2HPO4-NaH2PO4 buffer (pH 6.8) at 1000 U/mL and 2.5 mM, respectively. A mixture of 60 μL of 50 mM Na2HPO4-NaH2PO4 buffer (pH 6.8) and 100 μL L-Tyr was designated as solution 1 (control group). […] Solutions 1 and 2 were added to 40 μL tyrosinase for 6 min reaction time at 37°C, individually. Absorbance of the resulting solutions was recorded every min by Beckman TU-1810 spectrophotometer at 475 nm. One unit of tyrosinase activity was arbitrarily defined as a rate of increase of 1 absorbance unit per min in the initial linear region of a plot of absorbance against time. The tyrosinase activity determined by the increasing absorbance at 475 nm accompanying by the oxidation of the substrates was calculated as the following formula [20]: (1) Tyrosinase activity %=A2/A1×100, where A1 is absorbance at 475 nm with solutions 1 and tyrosinase and A2 is absorbance at 475 nm with solutions 2 and tyrosinase.

B16 melanoma cells [1] = test: cell apoptosis rate, AnnexinV-FITC flow cytometry; format: cell-based; details: 72 h
Protocol: (§1) To determine the safety of the various compounds, after treatment with the test compounds cell viability was determined by using MTT colorimetric assay and cell apoptosis rate by using AnnexinV-FITC apoptosis analysis kit (Tianjin Sungene Biotech Co., Ltd). 1 × 10^6 cells were added to individual wells of a 24-well plate. […] Cell viability was determined in a colorimetric assay using mitochondrial dehydrogenase activity in active mitochondria to form purple formazan. Apoptosis rate in a fluorochrome assay using flow cytometry (BD, USA).

B16 melanoma cells [2] = test: cellular melanin content in B16 melanoma cells; format: cell-based; details: 100-400 μM, 72 h
Protocol: For melanin content, the cells were treated with test compounds or kojic acid in the presence or absence of α-MSH as described above. The cells were washed with PBS and lyzed with 800 μL of 1 N NaOH (Sigma, USA) containing 10% DMSO for 1 h at 80°C. The absorbance at 400 nm was measured. The melanin content was determined from a standard curve prepared from an authentic standard of synthetic melanin (Sigma, USA).

[3] = tested on: cellular tyrosinase in B16 melanoma cells; test: cellular tyrosinase activity in B16 melanoma cells; format: cell-based; details: for effect on cellular tyrosinase activity: 100-400 μM; for inhibition at 400 µM: Mus musculus, read-out: inhibition on cellular tyrosinase activity
[4] = cell viability, MTT colorimetric assay; format: cell-based; details: mouse
Protocol: as §1

[5] = biological target: T1, tyrosinase in B16 melanoma cells (Mus musculus, UniProt P11344); test: kinetic analysis of tyrosinase activity inhibition, B16 lysate protein, L-DOPA substrate, Lineweaver-Burk plot; format: biochemical; details: read-out: AC50, negative inhibition (acceleration) effect on tyrosinase
T1 construct: Each well of a 96-well plate contained 40 μg of lysate protein; endogenous in cells; host or cells: B16 melanoma cells (lysate)
T1 sequence (P11344 19-533): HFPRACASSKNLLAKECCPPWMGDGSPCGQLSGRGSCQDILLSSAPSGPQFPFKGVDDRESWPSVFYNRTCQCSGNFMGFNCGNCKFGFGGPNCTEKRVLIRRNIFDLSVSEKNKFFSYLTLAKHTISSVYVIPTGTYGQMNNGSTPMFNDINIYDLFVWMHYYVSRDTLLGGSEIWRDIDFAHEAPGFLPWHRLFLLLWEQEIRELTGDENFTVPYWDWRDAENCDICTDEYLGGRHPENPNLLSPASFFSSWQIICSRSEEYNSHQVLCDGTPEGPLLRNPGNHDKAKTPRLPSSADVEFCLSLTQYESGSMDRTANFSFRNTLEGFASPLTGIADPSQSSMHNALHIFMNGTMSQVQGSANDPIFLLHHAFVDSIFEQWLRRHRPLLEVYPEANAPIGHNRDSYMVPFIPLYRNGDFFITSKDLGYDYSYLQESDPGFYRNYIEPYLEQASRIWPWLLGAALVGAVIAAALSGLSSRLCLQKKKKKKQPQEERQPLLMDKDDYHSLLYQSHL

B16 melanoma cells [6] = test: cell viability, MTT colorimetric assay; format: cell-based; details: for cytotoxic effect: 100, 200, 400 μM, as a whole; for reduction of viable cells: at the higher doses; for cytotoxic activity (reduction of viable cells): dose of 100 μM
Protocol: as §1

[7] = biological target: T1, tyrosinase in B16 melanoma cells; test: kinetic analysis of tyrosinase activity inhibition, B16 lysate protein, L-DOPA substrate, Lineweaver-Burk plot; format: biochemical; details: for K IS (inhibition constant) / mode of inhibition: L-DOPA substrate; for K IS (inhibition constant): from intercept of Lineweaver-Burk plots; for mode of inhibition: Lineweaver-Burk plot
Protocol: The cells were treated with test compounds as described above for the determination of tyrosinase activity. […] After incubation at 37°C for 30 min, the absorbance was measured at 475 nm. The inhibition constants for compounds and inhibition type were calculated using Lineweaver-Burk plot. The Lineweaver-Burk plot was widely used to determine important terms in enzyme kinetics, such as K m and V max. The plot provided a useful graphical method for analysis of the Michaelis-Menten equation: V = V max [S]/(K m + [S]). It took the reciprocal gave Lineweaver-Burk plot: 1/V = (K m + [S])/V max [S] = ((K m/V max)(1/ [S])) + (1/V max), where V is the reaction velocity (the reaction rate), K m is the Michaelis-Menten constant, V max is the maximum reaction velocity, and [S] is the substrate concentration. The y-intercept of such a graph was equivalent to the inverse of V max; the x-intercept of the graph represents −1/K m. It also gave a quick, visual impression of the different forms of enzyme inhibition. The inhibition constant (K I or K IS) was generated from the slope of the apparent […]/V max or 1/V max versus the concentrations of compounds.

[8] = 100 μM, control set as 0% (mean ± SD)
[9] = 200 μM, control set as 0% (mean ± SD)
[10] = 400 μM, control set as 0% (mean ± SD)
[11] = α-MSH-stimulated (100 μM α-MSH)
[12] = absence of α-MSH stimulation, 72 h
[13] = α-MSH-stimulated (100 μM α-MSH), 72 h
[14] = B16 melanoma cells, 100 μM, 72 h, percentage of controls (mean ± SD), read-out: Cell viability
[15] = B16 melanoma cells, 200 μM, 72 h, percentage of controls (mean ± SD), read-out: Cell viability
[16] = B16 melanoma cells, 400 μM, 72 h, percentage of controls (mean ± SD), read-out: Cell viability
[17] = 100 μM, 72 h, percentage of controls (mean ± SD), read-out: Cell viability
[18] = 200 μM, 72 h, percentage of controls (mean ± SD), read-out: Cell viability
[19] = 400 μM, 72 h, percentage of controls (mean ± SD), read-out: Cell viability

- IC50, tyrosinase inhibitory activity (Mushroom tyrosinase): 5.23 µg/mL (≈ 36.8 µM)
SMILES: O=c1cc(CO)occ1O [kojic acid, Kojic acid, reference compound]
- Apoptosis rate (B16 melanoma cells [1]; [8]): 9.45 ± 1.15%
- Apoptosis rate (B16 melanoma cells [1]; [9]): 12.36 ± 1.19%
- Apoptosis rate (B16 melanoma cells [1]; [10]): 15.05 ± 2.21%
- effect on cellular melanin content (B16 melanoma cells [2]; absence of α-MSH stimulation): reduced tyrosinase activity as well as melanin content
- effect on cellular melanin content (B16 melanoma cells [2]; [11]): reduced tyrosinase activity as well as melanin content
- effect on cellular tyrosinase activity [3, 12]: reduced tyrosinase activity as well as melanin content
- effect on cellular tyrosinase activity [3, 13]: reduced tyrosinase activity as well as melanin content
- viability at 72 h, 100 µM [4, 14]: 92.4 ± 4.41%
- viability at 72 h, 200 µM [4, 15]: 86.1 ± 2.12%
- viability at 72 h, 400 µM [4, 16]: 70.9 ± 3.12%

SMILES: CC(C)=CCC[C@@H](C)[C@H]1CC[C@@]2(C)C3=C(CC[C@]12C)[C@@]1(C)CC[C@H](O)C(C)(C)[C@@H]1CC3 [Fb-b, lanoserol]
- Apoptosis rate (B16 melanoma cells [1]; [8]): 0.31 ± 4.37∗∗∗ %
- Apoptosis rate (B16 melanoma cells [1]; [9]): 2.62 ± 3.33∗∗∗ %
- Apoptosis rate (B16 melanoma cells [1]; [10]): 5.12 ± 2.35∗ %
- AC50 [5]: 8.43 µM
- effect on cellular melanin content (B16 melanoma cells [2]; absence of α-MSH stimulation): significantly increased melanin content and cellular tyrosinase activity
- effect on cellular melanin content (B16 melanoma cells [2]; [11]): significantly increased melanin content and cellular tyrosinase activity
- increase of cellular tyrosinase activity ([3]; 400 μM, 72 h, absence of α-MSH): 18.21%
- effect on cellular tyrosinase activity [3, 13]: significantly increased melanin content and cellular tyrosinase activity
- cytotoxic effect (B16 melanoma cells [6]): a little or no cytotoxic effect
- viability at 72 h, 100 µM [4, 14]: 100 ± 2.56%
- viability at 72 h, 200 µM [4, 15]: 96.3 ± 2.61%
- viability at 72 h, 400 µM [4, 16]: 94.6 ± 3.03%

SMILES: CC(C(O)CCC(C)(C)O)[C@H]1CC[C@@]2(C)C3=C(CC[C@]12C)[C@@]1(C)CC[C@H](O)C(C)(C)[C@@H]1CC3 (stereo partly drawn) [Fd-a, 3β,22,25-trihydroxy-lanosta-8-ene]
- Apoptosis rate (B16 melanoma cells [1]; mouse, 100 μM): 1.21 ± 2.31%
- Apoptosis rate (B16 melanoma cells [1]; mouse, 200 μM): 2.15 ± 3.92%
- effect on cellular tyrosinase activity [3, 12]: slight or no inhibition
- viability at 72 h, 100 µM [4]: 96.7 ± 1.01%
- viability at 72 h, 200 µM [4]: 97.1 ± 1.12%
- viability at 72 h, 400 µM [4]: 85 ± 1.51%

SMILES: CC(C)=CCC[C@@H](C(=O)O)[C@H]1CC[C@@]2(C)C3=C(CC[C@]12C)[C@@]1(C)CC[C@H](O)C(C)(C)[C@@H]1CC3 [Fa-b, trametenolic acid]
- Apoptosis rate (B16 melanoma cells [1]; [8]): 5.11 ± 4.01%
- Apoptosis rate (B16 melanoma cells [1]; [9]): 6.51 ± 3.31%
- Apoptosis rate (B16 melanoma cells [1]; [10]): 10.09 ± 4.31%
- IC50 [7]: 7.25 µM
- Ki [7]: 0.9 µM
- K IS (inhibition constant) [7]: 0.5 µM
- mode of inhibition [7]: mixed inhibitor
- mode of inhibition ([7]; listed as trametenolic acid): mixed inhibition
- effect on cellular melanin content (B16 melanoma cells [2]; absence of α-MSH stimulation): reduced cellular melanin content
- effect on cellular melanin content (B16 melanoma cells [2]; [11]): reduced cellular melanin content
- inhibition at 400 µM ([3]; B16, 72 h): 23%
- effect on cellular tyrosinase activity [3, 12]: significantly reduced cellular tyrosinase activity
- effect on cellular tyrosinase activity [3, 13]: able to inhibit the increase in cellular tyrosinase activity
- reduction of viable cells (B16 melanoma cells [6]): 29.98%
- cytotoxic activity (reduction of viable cells) (B16 melanoma cells [6]): 4.55%
- viability at 72 h, 100 µM [4, 17]: 96.5 ± 3.08%
- viability at 72 h, 200 µM [4, 18]: 85.3 ± 4.13%
- viability at 72 h, 400 µM [4, 19]: 70 ± 2.05%

SMILES: O=C(O)c1cccnc1 [Fc-a, nicotinie acid]
- Apoptosis rate (B16 melanoma cells [1]; [8]): 10.12% and 10.12 ± 1.14%
- Apoptosis rate (B16 melanoma cells [1]; [9]): 25.44% and 25.44 ± 1.53∗∗∗ %
- Apoptosis rate (B16 melanoma cells [1]; [10]): 30.51% and 30.51 ± 1.11∗∗∗ %
- effect on cellular tyrosinase activity [3, 12]: slight or no inhibition
- cytotoxic effect (B16 melanoma cells [6]): highest cytotoxic effect in dose-dependent manner
- viability at 72 h, 100 µM [4, 14]: 73.5 ± 3.11%
- viability at 72 h, 200 µM [4, 15]: 45.3 ± 2.56%
- viability at 72 h, 400 µM [4, 16]: 40.5 ± 2.12%

SMILES: C=C(C)[C@@H]1CC[C@]2(CO)CC[C@]3(C)[C@H](CC[C@@H]4[C@@]5(C)CC[C@H](O)C(C)(C)[C@@H]5CC[C@]43C)[C@@H]12 [Fa-a, betulin]
- Apoptosis rate (B16 melanoma cells [1]; [8]): 9.01 ± 2.21%
- Apoptosis rate (B16 melanoma cells [1]; [9]): 12.21 ± 3.03%
- Apoptosis rate (B16 melanoma cells [1]; [10]): 15.31 ± 2.90%
- IC50 [7]: 5.13 µM
- Ki [7]: 0.4 µM
- K IS (inhibition constant) [7]: 0.4 µM
- mode of inhibition [7]: noncompetitive inhibitor
- mode of inhibition ([7]; listed as Betulin): noncompetitive inhibition
- effect on cellular melanin content (B16 melanoma cells [2]; absence of α-MSH stimulation): reduced cellular melanin content
- effect on cellular melanin content (B16 melanoma cells [2]; [11]): reduced cellular melanin content
- inhibition at 400 µM ([3]; B16, 400 μM, 72 h, absence of α-MSH): 30%
- effect on cellular tyrosinase activity [3, 12]: significantly reduced cellular tyrosinase activity
- effect on cellular tyrosinase activity [3, 13]: able to inhibit the increase in cellular tyrosinase activity
- reduction of viable cells (B16 melanoma cells [6]): 34.68%
- cytotoxic activity (reduction of viable cells) (B16 melanoma cells [6]): 11.69%
- viability at 72 h, 100 µM [4, 17]: 88.3 ± 3.21%
- viability at 72 h, 200 µM [4, 18]: 75.1 ± 2.65%
- viability at 72 h, 400 µM [4, 19]: 65.3 ± 4.41%

SMILES: CC(C)=CC[C@@H](O)[C@@H](C)[C@H]1CC[C@@]2(C)C3=C(CC[C@]12C)[C@@]1(C)CC[C@H](O)C(C)(C)[C@@H]1CC3 [Fb-a, inotodiol]
- Apoptosis rate (B16 melanoma cells [1]; [8]): 3.91 ± 3.27%
- Apoptosis rate (B16 melanoma cells [1]; [9]): 5.10 ± 2.61∗ %
- Apoptosis rate (B16 melanoma cells [1]; [10]): 6.07 ± 3.53∗∗ %
- AC50 [7]: 9.74 µM
- effect on cellular melanin content (B16 melanoma cells [2]; absence of α-MSH stimulation): significantly increased melanin content and cellular tyrosinase activity
- effect on cellular melanin content (B16 melanoma cells [2]; [11]): significantly increased melanin content and cellular tyrosinase activity
- increase of cellular tyrosinase activity ([3]; 400 μM, 72 h, absence of α-MSH): 21.24%
- effect on cellular tyrosinase activity [3, 13]: significantly increased melanin content and cellular tyrosinase activity
- cytotoxic effect (B16 melanoma cells [6]): a little or no cytotoxic effect
- viability at 72 h, 100 µM [4, 14]: 99.3 ± 1.53%
- viability at 72 h, 200 µM [4, 15]: 99.4 ± 1.41%
- viability at 72 h, 400 µM [4, 16]: 98.2 ± 1.35%

Reference: article PMC4145793, “Inhibitory and Acceleratory Effects of Inonotus obliquus on Tyrosinase Activity and Melanin Formation in B16 Melanoma Cells” (Evidence-based Complementary and Alternative Medicine : eCAM, 2014)
